The record followed here is US20260183297A1, “SELECTION OF PATIENTS FOR THE TREATMENT OF FADS1-MEDIATED DISEASES OR DISORDERS USING FADS-1 INHIBITORS” (AMGEN INC., priority 2022, published 2026).

Read-outs that look alike come from different tables or passages of the source.

The target in the assay is T1, FADS1 (Mus musculus, UniProt Q920L1).
T1 construct: Liver from ^13C5-DGLA dosed DIO mice was collected for pharmacodynamic (PD) analysis; from tissue; host or cells: living DIO C57Bl/6 mice; 13C5-DGLA to 13C5-AA conversion read in liver (A4) or blood plasma (A5)
T1 sequence (Q920L1 1-447): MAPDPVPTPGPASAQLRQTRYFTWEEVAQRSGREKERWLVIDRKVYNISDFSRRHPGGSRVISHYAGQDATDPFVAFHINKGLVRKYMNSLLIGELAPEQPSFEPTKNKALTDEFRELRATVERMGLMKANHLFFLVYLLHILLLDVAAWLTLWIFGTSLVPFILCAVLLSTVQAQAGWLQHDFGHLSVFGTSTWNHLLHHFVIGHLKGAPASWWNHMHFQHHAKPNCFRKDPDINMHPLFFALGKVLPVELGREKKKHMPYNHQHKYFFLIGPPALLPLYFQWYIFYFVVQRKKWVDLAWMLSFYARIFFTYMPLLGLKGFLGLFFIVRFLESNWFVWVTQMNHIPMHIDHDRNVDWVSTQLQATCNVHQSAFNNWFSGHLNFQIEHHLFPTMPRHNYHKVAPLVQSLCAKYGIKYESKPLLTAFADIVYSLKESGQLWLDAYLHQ
In words: In vivo FADS1 activity measurement using the liver (13C5-DGLA to 13C5-AA conversion). The following applies: for IC50: liver of DIO mice, unbound plasma concentration, read-out: Free (unbound) in vivo IC50. As for the experimental part: Mice were then dosed by intraperitoneal injection with a solution comprising of a mixture of 0.1 ml solution of ^13C5-DGLA (2 mM in 18.42 mM Na2CO3 buffer). Necropsy were performed at 30 minutes post ^13C5-DGLA dosing. Liver from ^13C5-DGLA dosed DIO mice was collected for pharmacodynamic (PD) analysis and EDTA plasma was collected for compound exposure determination. For PD analysis, 150 mg of frozen liver tissue were premixed with ALA-D14 as an internal standard. Liver samples were homogenized and extracted twice with chloroform/methanol (2:1) solution. The organic phases for the two extractions were pooled and evaporated to dryness under nitrogen gas. The liver extract was resuspended in 200 μl 2N NaOH and saponified at 65° C. for 1 hour. After cooling to room temperature, 100 μl of formic acid was added and the mixture was subjected to two consecutive extractions with a chloroform:methanol (2:1) solution. The pooled organic phases were evaporated to dryness under nitrogen gas and resuspended in a solution containing acetonitrile and methanol at a ratio of 1:1. The extracts were then analyzed by LC/MS/MS for the following analytes: ^13C5-DGLA, ^13C5-AA, with ALA-d14 as the internal standard. The sample (20 μl) was injected onto a Poroshell 120 EC-C18 3.0×50 mm, 1.9 μm id column (Agilent, Santa Clara, CA). The analyte peak areas were quantified using the Analyst software (SCIEX, Framingham, […]). The residual in vivo FADS1 activity was calculated by taking the percent of substrate to product conversion normalized to the vehicle group to determine the percent of control (POC) and the percent inhibition relative to control (vehicle).
To determine the degree of FADS1 inhibition, the in vivo FADS1 activity as the percent of conversion calculated using the following equation: […]
The data were then normalized to the vehicle group to determine the percent of inhibition relative to control (vehicle) by the following equation: […]
To calculate the in vivo potency, dose response graphs were generated by plotting the plasma concentration of the test compound determined from the PK analysis on the abscissa, against the percent of control (POC, relative to vehicle) of the FADS1 activity for each mouse. The data points were then fitted by using the log(inhibitor) vs response nonlinear regression algorithm using GraphPad Prism (version 8.4.3, San Diego CA) to calculate the in vivo IC50 (total).
Free (unbound) IC50 and IC90 values were calculated by first calculating the unbound compound concentration in the plasma by multiplying the plasma concentration of test compound with the fraction unbound (fu) value in mouse plasma determined in the plasma protein binding study. A dose response curve was used to determine the unbound IC50 and IC90 by plotting the unbound plasma concentration of the compound on the abscissa, against the percent of control (POC, relative to vehicle) of FADS1 activity for each mouse. The data points were then fitted with a log (inhibitor) versus response nonlinear regression algorithm using GraphPad Prism (version 8.4.3, San Diego, CA) to calculate the in vivo IC50 (Free).

The mark [1] stands for this setting: DIO mice, single oral dose 10 mg/kg, 24 hours after dosing.
Setting [2] is: DIO mice, single oral dose 30 mg/kg, 24 hours after dosing.
Where [3] appears, read: mouse, DIO mice, single oral dose 10 mg/kg, 24 hours after dosing, read-out: Liver Avg % Inhibition.
Where [4] appears, read: mouse, DIO mice, single oral dose 30 mg/kg, 24 hours after dosing, read-out: Liver Avg % Inhibition.

As for `COc1ccn2c(=O)c(-c3cnn(CC(F)(F)C(F)(F)F)c3)c(C(F)(F)F)nc2c1` [Compound A, 8-methoxy-3-(1-(2,2,3,3,3-pentafluoropropyl)-1H-pyrazol-4-yl)-2-(trifluoromethyl)-4H-pyrido[1,2-a]pyrimidin-4-one], the IC50 was 2 nM. In addition, under “mouse, DIO mice, 10 mg/kg daily oral, after 54 days of treatment, read-out: FADS1 activity inhibited (residual liver FADS1 activity)”, the inhibition at 10 mg/kg was determined as 90%. Besides, under “mouse, DIO mice, 30 mg/kg daily oral, after 54 days of treatment, read-out: FADS1 activity inhibited (residual liver FADS1 activity)”, the inhibition at 30 mg/kg was found to be 93.6%.

`COc1ccn2c(=O)c(-c3cnn(CC(F)(F)C(F)(F)F)c3)c(C(F)(F)F)nc2n1` [Compound B]: the IC50 worked out at 4 nM. Moreover, the “Liver Avg % Conversion” value under setting [1] is 2.2%. Under setting [2], the “Liver Avg % Conversion” value is listed as 1.5%. For the same molecule, the “Liver Avg % Conversion” value (DIO mice, single oral dose 50 mg/kg, 24 hours after dosing) is reported as 1.4%. Besides, under setting [3], the inhibition at 10 mg/kg was 97.4%. In addition, the inhibition at 30 mg/kg under setting [4] came out at 98.2%. The molecule also showed an inhibition at 50 mg/kg (mouse, DIO mice, single oral dose 50 mg/kg, 24 hours after dosing) of 98.3%.

With `N#Cc1ccn2c(=O)c(-c3cnn(CC(F)(F)C(F)(F)F)c3)c(C(F)(F)F)nc2c1` [Compound C], the IC50 came to 4 nM. Under “DIO mice, single oral dose 3 mg/kg, 24 hours after dosing”, the “Liver Avg % Conversion” value worked out at 14.2%. Moreover, the “Liver Avg % Conversion” value under setting [1] worked out at 4.3%. Moreover, the “Liver Avg % Conversion” value under setting [2] came out at 1.5%. The molecule further gave an inhibition at 3 mg/kg (mouse, DIO mice, single oral dose 3 mg/kg, 24 hours after dosing) of 83%. Also, under setting [3], the inhibition at 10 mg/kg is 94.8%. Besides, the inhibition at 30 mg/kg under setting [4] was determined as 98.2%.
